Where “and” joins values, the source holds several entries; their conditions need not be identical. Identical values can stand only once. Like-named read-outs stand apart in the source and are kept apart here.
Columns and labels:
[1] = molecular target: T1, cloned human 5-HT6-expressing cell line (HTS111RTA) (Homo sapiens, UniProt P50406); assay: intracellular calcium mobilization assay (antagonism of 2-Me 5-HT); type: cell-based; settings: for IC50: antagonism of 2-Me-5-HT (500 nM) intracellular calcium mobilization
T1 construct: host or cells: purchased ready-to-assay cell line
T1 sequence (P50406 whole entry): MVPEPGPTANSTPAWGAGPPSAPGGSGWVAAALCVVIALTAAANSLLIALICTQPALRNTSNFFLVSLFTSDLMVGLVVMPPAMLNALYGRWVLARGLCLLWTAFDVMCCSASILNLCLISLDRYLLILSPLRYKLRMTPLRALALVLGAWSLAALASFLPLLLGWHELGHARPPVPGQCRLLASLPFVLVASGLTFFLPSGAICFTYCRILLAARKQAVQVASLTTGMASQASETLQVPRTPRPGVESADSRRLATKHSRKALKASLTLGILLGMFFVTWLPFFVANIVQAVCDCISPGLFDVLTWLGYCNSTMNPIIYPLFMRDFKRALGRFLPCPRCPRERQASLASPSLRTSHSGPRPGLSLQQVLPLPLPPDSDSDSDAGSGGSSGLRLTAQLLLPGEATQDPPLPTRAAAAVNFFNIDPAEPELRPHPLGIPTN

5-HT6R = settings: cited from earlier work
1H-NMR pKa determination = type: physicochemical; settings: D2O solution; 1H-NMR titration in D2O, 298 K, corrected for H2O; piperazine nitrogen; read-out: pKa (pKa2)
Experimental: All NMR spectra were performed on a Bruker Avance III HD-400 MHz spectrometer at 298 K. The ^1H-NMR experiments were acquired using water suppression in order to suppress the residual HDO signal. Solutions of the 3b and 4g 2 mM in D2O were prepared adding acetone 200 μM as an internal standard. The titrations were carried out progressively in a single NMR sample for each compound. The pH was adjusted with 0.1 mol/L of NaOH and 0.1 mol/L HCl, to cover the pH ranges 4.65–9.11 and 5.58–9.46 for 3b and 4g solutions, respectively. […] The chemical shifts (δ ppm) of the piperazine methylene protons were plotted against the pH for both compounds. The pKa were obtained from the inflection point of the resulting sigmoidal curve, for each compound.
The signal to upfield of the doublet of methylene protons of the piperazine ring was used to plot δ ppm vs. pH. In this case, the pKa^D correspond to inflection point in the resulting sigmoidal curve from the plot δ ppm vs. pH, for each compound (Figure 7B,D). […] The pKa value determined in D2O was corrected for H2O using the Krezel et al. equation [59].
The chemical shift is affected by the chemical and, consequently, the magnetic environment. Therefore, the protonation of basic species such as the nitrogen atoms in piperazine ring induce important changes in the chemical environment in the adjacent proton groups. […]

Row | Structure (SMILES) | melting point | also measured
1 | Cc1[nH]c2ccc(O)cc2c1CCN [2-Me 5-HT, reference compound] |  | EC50 [1]: 0.119 µM; pKi (5-HT6R; Figure 1, known ligands): 7.34
2 | COc1ccccc1N1CCNCC1 [2-methoxyphenyl piperazine] |  | 5-HT6R affinity compared with the compounds here reported (5-HT6R): substantially lower affinity
3 | O=C(CBr)c1c[nH]c2ccccc12 [Compound 1] | 160.3 to 161 °C | pKi (5-HT6R; Table 2 reference value): 8.70 [1]
4 | Cc1ccc(S(=O)(=O)n2cc(C(=O)CN3CCN(c4ccccn4)CC3)c3ccccc32)cc1 [Compound 3a, 2-(4-(Pyridyl-2-yl)piperazin-1-yl)-1-(1-tosyl-1H-indol-3-yl)ethanone] | 74.9 to 75.7 °C and 75 to 76 °C | 
5 | COc1ccccc1N1CCN(CC(=O)c2cn(S(=O)(=O)c3ccc(C)cc3)c3ccccc23)CC1 [Compound 3b, 2-(4-(2-Methoxyphenyl)piperazin-1-yl)-1-(1-tosyl-1H-indol-3-yl)ethanone] | 132.3 to 133.6 °C and 132 to 134 °C | pKa (1H-NMR pKa determination): 5.72
6 | Cc1ccc(S(=O)(=O)n2cc(C(=O)CN3CCN(c4ncccn4)CC3)c3ccccc32)cc1 [Compound 3c, 2-(4-(Pyrimidin-2-yl)piperazin-1-yl)-1-(1-tosyl-1H-indol-3-yl)ethanone] | 133 to 134 °C | 
7 | O=C(CN1CCN(c2ncccn2)CC1)c1cn(S(=O)(=O)c2ccc(Cl)cc2)c2ccccc12 [Compound 3d, 1-(1-(4-Chlorophenylsulfonyl)-1H-indol-3-yl)-2-(4-(pyrimidin-2-yl)piperazin-1-yl)ethanone] | 168 to 169 °C | 
8 | O=C(CN1CCN(c2ncccn2)CC1)c1cn(S(=O)(=O)c2ccc(F)cc2)c2ccccc12 [Compound 3e, 1-(1-(4-Fluorophenylsulfonyl)-1H-indol-3-yl)-2-(4-(pyrimidin-2-yl)piperazin-1-yl)ethanone] | 145 to 146 °C | 
9 | O=C(CN1CCN(c2ccccn2)CC1)c1cn(S(=O)(=O)c2ccc(I)cc2)c2ccccc12 [Compound 3f, 1-(1-(4-Iodophenylsulfonyl)-1H-indol-3-yl)-2-(4-(pyridin-2-yl)piperazin-1-yl)ethanone] | 179 to 180 °C | 
10 | COc1ccccc1N1CCN(CC(=O)c2cn(S(=O)(=O)c3ccc(I)cc3)c3ccccc23)CC1 [Compound 3g, 1-(1-(4-Iodophenylsulfonyl)-1H-indol-3-yl)-2-(4-(2-methoxyphenyl)piperazin-1-yl)ethanone] | 182 to 183 °C | 
11 | O=C(CN1CCN(c2ncccn2)CC1)c1cn(S(=O)(=O)c2ccc(I)cc2)c2ccccc12 [Compound 3h, 1-(1-(4-Iodophenylsulfonyl)-1H-indol-3-yl)-2-(4-(pyrimidin-2-yl)piperazin-1-yl)ethanone] | 184 to 185 °C | 
12 | O=C(CN1CCN(c2ccccn2)CC1)c1cn(S(=O)(=O)c2cccc3ccccc23)c2ccccc12 [Compound 3i, 1-(1-(Naphthalen-1-ylsulfonyl)-1H-indol-3-yl)-2-(4-(pyridin-2-yl)piperazin-1-yl)ethanone] | 76 to 77 °C | 
13 | COc1ccccc1N1CCN(CC(=O)c2cn(S(=O)(=O)c3cccc4ccccc34)c3ccccc23)CC1 [Compound 3j, 2-(4-(2-Methoxyphenyl)piperazin-1-yl)-1-(1-(naphthalen-1-ylsulfonyl)-1H-indol-3-yl)ethanone] | 74 to 75 °C | 
14 | O=C(CN1CCN(c2ncccn2)CC1)c1cn(S(=O)(=O)c2cccc3ccccc23)c2ccccc12 [Compound 3k, 1-(1-(Naphthalen-1-ylsulfonyl)-1H-indol-3-yl)-2-(4-(pyrimidin-2-yl)piperazin-1-yl)ethanone] | 88 to 89 °C | 
15 | Cc1ccc(S(=O)(=O)n2cc(C(O)CN3CCN(c4ccccn4)CC3)c3ccccc32)cc1 (stereo not drawn) [Compound 4a, 2-(4-(Pyridin-2-yl)piperazin-1-yl)-1-(1-tosyl-1H-indol-3-yl)ethanol] | 72.4 to 73.9 °C and 72 to 74 °C | IC50 [1]: 0.783 µM
16 | COc1ccccc1N1CCN(CC(O)c2cn(S(=O)(=O)c3ccc(C)cc3)c3ccccc23)CC1 (stereo not drawn) [Compound 4b, 2-(4-(2-Methoxyphenyl)piperazin-1-yl)-1-(1-tosyl-1H-indol-3-yl)ethanol] | 86.3 to 86.9 °C and 86 to 87 °C | 
17 | Cc1ccc(S(=O)(=O)n2cc(C(O)CN3CCN(c4ncccn4)CC3)c3ccccc32)cc1 (stereo not drawn) [Compound 4c, 2-(4-(Pyrimidin-2-yl)piperazin-1-yl)-1-(1-tosyl-1H-indol-3-yl)ethanol] | 81 to 82 °C | 

Row | Structure (SMILES) | melting point | also measured
18 | O=S(=O)(c1ccc(Cl)cc1)n1cc(C(O)CN2CCN(c3ncccn3)CC2)c2ccccc21 (stereo not drawn) [Compound 4d, 1-(1-(4-Chlorophenylsulfonyl)-1H-indol-3-yl)-2-(4-(pyrimidin-2-yl)piperazin-1-yl)ethanol] | 76 to 77 °C and 81 to 82 °C | 
19 | O=S(=O)(c1ccc(F)cc1)n1cc(C(O)CN2CCN(c3ncccn3)CC2)c2ccccc21 (stereo not drawn) [Compound 4e, 1-(1-(4-Fluorophenylsulfonyl)-1H-indol-3-yl)-2-(4-(pyrimidin-2-yl)piperazin-1-yl)ethanol] | 72 to 73 °C | 
20 | O=S(=O)(c1ccc(I)cc1)n1cc(C(O)CN2CCN(c3ccccn3)CC2)c2ccccc21 (stereo not drawn) [Compound 4f, 1-(1-(4-Iodophenylsulfonyl)-1H-indol-3-yl)-2-(4-(pyridin-2-yl)piperazin-1-yl)ethanol] | 157 to 158 °C | IC50 [1]: 24.6 µM
21 | COc1ccccc1N1CCN(CC(O)c2cn(S(=O)(=O)c3ccc(I)cc3)c3ccccc23)CC1 (stereo not drawn) [Compound 4g, 1-(1-(4-Iodophenylsulfonyl)-1H-indol-3-yl)-2-(4-(2-methoxyphenyl)piperazin-1-yl)ethanol] | 109 to 110 °C | inhibition of 2-Me-5HT-induced Ca2+ mobilization [1]: strong inhibition; IC50 [1]: 0.204 µM; pKa (1H-NMR pKa determination): 6.69
22 | O=S(=O)(c1ccc(I)cc1)n1cc(C(O)CN2CCN(c3ncccn3)CC2)c2ccccc21 (stereo not drawn) [Compound 4h, 1-(1-(4-Iodophenylsulfonyl)-1H-indol-3-yl)-2-(4-(pyrimidin-2-yl)piperazin-1-yl)ethanol] | 171 to 172 °C | IC50 [1]: 0.075 µM
23 | O=S(=O)(c1cccc2ccccc12)n1cc(C(O)CN2CCN(c3ccccn3)CC2)c2ccccc21 (stereo not drawn) [Compound 4i, 1-(1-(Naphthalen-1-ylsulfonyl)-1H-indol-3-yl)-2-(4-(pyridin-2-yl)piperazin-1-yl)ethanol] | 80 to 81 °C | IC50 [1]: 0.399 µM
24 | COc1ccccc1N1CCN(CC(O)c2cn(S(=O)(=O)c3cccc4ccccc34)c3ccccc23)CC1 (stereo not drawn) [Compound 4j, 2-(4-(2-Methoxyphenyl)piperazin-1-yl)-1-(1-(naphthalen-1-ylsulfonyl)-1H-indol-3-yl)ethanol] |  | inhibition of 2-Me-5HT-induced Ca2+ mobilization [1]: strong inhibition; IC50 [1]: 0.032 µM
25 | O=S(=O)(c1cccc2ccccc12)n1cc(C(O)CN2CCN(c3ncccn3)CC2)c2ccccc21 (stereo not drawn) [Compound 4k, 1-(1-(Naphthalen-1-ylsulfonyl)-1H-indol-3-yl)-2-(4-(pyrimidin-2-yl)piperazin-1-yl)ethanol] | 82 to 83 °C | IC50 [1]: 0.688 µM
26 | COc1ccc(S(=O)(=O)n2cc(C(O)CN3CCOCC3)c3ccccc32)cc1 (stereo not drawn) [Compound 4l, 1-(1-(4-Methoxyphenylsulfonyl)-1H-indol-3-yl)-2-morpholinoethanol] | 149 to 152 °C | 
27 | O=S(=O)(c1ccc(F)cc1)n1cc(C2=CCCNC2)c2ccccc21 [III] |  | pKi (5-HT6R; Figure 1, known ligands): 8.70
28 | CN1CCC(c2cn(S(=O)(=O)c3ccc(F)cc3)c3ccccc23)C1 (stereo not drawn) [II] |  | pKi (5-HT6R; Figure 1, known ligands): 8.70
29 | CC(C)c1ccc(S(=O)(=O)n2cc(N3CCN(C)CC3)c3ccccc32)cc1 [IV] |  | pKi (5-HT6R; Figure 1, known ligands): 8.47
30 | COc1ccc2c(c1)c(CCN(C)C)cn2S(=O)(=O)c1ccccc1 [I] |  | pKi (5-HT6R; Figure 1, known ligands): 8.64
31 | CCN(CC)C(=O)[C@@H]1C=C2c3cccc4[nH]cc(c34)C[C@H]2N(C)C1 [LSD] |  | pKi (5-HT6R; Figure 1, known ligands): 8.94
32 | CN1CC(Cl)=C(c2cn(S(=O)(=O)c3ccccc3)c3ccccc23)C1 [VI] |  | pKi (5-HT6R; Figure 1, known ligands): 8.57
33 | CN1CCC[C@@H]1Cc1cn(S(=O)(=O)c2ccccc2)c2ccccc12 [V] |  | pKi (5-HT6R; Figure 1, known ligands): 9.52

— article PMC6273627, “Extended N-Arylsulfonylindoles as 5-HT6 Receptor Antagonists: Design, Synthesis & Biological Evaluation” (Molecules, 2016)
